Measurements taken from ChEMBL document CHEMBL1201862, “PubChem BioAssay data set” (2004).
Active and inactive are the calls of the source.

What was measured:
Assay type in all cases: functional
[1] = target: Phosphorylase b kinase gamma catalytic chain, liver/testis isoform (Homo sapiens, UniProt P15735);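 note: PHKG2 measured as one member of a kinome-wide kinase panel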
[2] = target: ALK tyrosine kinase receptor (Homo sapiens, UniProt Q9UM73);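 note: ALK tested as one member of a kinase panel screen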
Sequence of ALK tyrosine kinase receptor (Q9UM73 whole entry): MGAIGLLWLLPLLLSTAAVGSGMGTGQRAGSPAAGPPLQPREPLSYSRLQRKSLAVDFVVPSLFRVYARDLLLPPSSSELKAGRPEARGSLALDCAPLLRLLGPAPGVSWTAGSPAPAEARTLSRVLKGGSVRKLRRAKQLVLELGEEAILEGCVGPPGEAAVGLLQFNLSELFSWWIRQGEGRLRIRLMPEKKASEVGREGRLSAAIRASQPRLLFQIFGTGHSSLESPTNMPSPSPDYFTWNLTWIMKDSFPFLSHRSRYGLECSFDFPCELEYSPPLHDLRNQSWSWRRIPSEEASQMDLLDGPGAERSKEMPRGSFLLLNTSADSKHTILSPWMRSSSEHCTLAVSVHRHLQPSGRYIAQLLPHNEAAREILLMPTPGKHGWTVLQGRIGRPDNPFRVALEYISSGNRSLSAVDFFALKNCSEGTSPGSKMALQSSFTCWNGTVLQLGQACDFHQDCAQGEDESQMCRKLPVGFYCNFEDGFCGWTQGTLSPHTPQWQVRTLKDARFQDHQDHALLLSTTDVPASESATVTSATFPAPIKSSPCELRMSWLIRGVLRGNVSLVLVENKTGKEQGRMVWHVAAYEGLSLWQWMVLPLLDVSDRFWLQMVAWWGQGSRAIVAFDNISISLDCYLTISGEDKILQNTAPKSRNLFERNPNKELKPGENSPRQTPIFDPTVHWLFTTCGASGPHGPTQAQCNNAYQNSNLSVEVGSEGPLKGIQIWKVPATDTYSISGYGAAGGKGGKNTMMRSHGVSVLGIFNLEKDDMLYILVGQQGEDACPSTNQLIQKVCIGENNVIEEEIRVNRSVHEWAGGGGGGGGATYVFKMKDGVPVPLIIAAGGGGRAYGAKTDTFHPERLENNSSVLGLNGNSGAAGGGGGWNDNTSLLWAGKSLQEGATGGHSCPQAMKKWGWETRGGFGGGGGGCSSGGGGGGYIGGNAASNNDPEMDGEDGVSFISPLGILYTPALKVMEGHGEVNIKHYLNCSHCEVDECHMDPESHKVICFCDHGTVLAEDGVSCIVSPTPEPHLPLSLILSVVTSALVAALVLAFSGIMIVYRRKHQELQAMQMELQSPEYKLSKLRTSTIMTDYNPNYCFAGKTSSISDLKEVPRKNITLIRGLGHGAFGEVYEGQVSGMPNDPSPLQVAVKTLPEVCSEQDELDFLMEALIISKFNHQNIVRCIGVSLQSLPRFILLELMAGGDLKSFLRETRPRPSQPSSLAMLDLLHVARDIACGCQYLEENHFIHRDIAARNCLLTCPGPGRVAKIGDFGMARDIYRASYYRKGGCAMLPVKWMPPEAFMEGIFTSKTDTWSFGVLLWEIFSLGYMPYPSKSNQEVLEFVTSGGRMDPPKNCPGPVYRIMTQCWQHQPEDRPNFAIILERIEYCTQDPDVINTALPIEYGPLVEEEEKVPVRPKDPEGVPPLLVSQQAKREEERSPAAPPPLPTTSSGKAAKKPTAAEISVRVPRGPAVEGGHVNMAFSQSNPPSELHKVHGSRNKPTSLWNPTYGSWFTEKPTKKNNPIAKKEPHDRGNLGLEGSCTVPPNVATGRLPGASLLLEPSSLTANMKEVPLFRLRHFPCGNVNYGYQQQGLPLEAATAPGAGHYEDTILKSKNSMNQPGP

[3] = target: Calcium/calmodulin-dependent protein kinase type II subunit gamma (Homo sapiens, UniProt Q13555)
[4] = target: MAP kinase-activated protein kinase 2 (Homo sapiens, UniProt P49137);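 note: measured as one member of a kinome-wide kinase panel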
[5] = target: Casein kinase II subunit alpha (Homo sapiens, UniProt P68400)
Sequence of Casein kinase II subunit alpha (P68400 whole entry, canonical isoform): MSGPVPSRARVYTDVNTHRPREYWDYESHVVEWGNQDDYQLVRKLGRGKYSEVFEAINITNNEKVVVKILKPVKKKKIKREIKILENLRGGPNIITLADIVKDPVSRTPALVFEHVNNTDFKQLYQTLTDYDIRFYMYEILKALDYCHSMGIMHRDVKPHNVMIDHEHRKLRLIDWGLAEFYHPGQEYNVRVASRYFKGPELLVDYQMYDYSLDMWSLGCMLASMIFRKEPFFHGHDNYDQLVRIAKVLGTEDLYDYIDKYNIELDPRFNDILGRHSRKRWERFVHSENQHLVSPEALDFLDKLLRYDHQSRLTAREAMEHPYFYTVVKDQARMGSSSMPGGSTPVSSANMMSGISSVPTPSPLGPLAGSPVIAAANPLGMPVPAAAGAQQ

[6] = target: Casein kinase I isoform gamma-1 (Homo sapiens, UniProt Q9HCP0);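 note: measured as the CSNK1G1 member of a kinome profiling panel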
[7] = target: Tyrosine-protein kinase Lyn (Homo sapiens, UniProt P07948);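 note: lyn as one member of a kinase panel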
[8] = target: Mitogen-activated protein kinase 9 (Homo sapiens, UniProt P45984);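 note: value from a kinome panel profiling assay, MAPK9 panel entry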
Sequence of Mitogen-activated protein kinase 9 (P45984 whole entry): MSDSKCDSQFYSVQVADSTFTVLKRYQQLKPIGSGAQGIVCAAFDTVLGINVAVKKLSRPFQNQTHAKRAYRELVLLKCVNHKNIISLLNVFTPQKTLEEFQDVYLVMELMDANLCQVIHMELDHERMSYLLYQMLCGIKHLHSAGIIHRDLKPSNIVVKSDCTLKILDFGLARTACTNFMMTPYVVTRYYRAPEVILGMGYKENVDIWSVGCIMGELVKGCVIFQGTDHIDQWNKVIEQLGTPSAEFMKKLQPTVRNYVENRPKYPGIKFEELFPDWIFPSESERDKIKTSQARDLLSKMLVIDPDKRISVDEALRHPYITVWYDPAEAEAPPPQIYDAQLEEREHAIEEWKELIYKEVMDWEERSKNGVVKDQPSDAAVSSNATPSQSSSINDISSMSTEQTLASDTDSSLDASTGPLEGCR

[9] = target: Serine/threonine-protein kinase N2 (Homo sapiens, UniProt Q16513)
[10] = target: Tyrosine-protein kinase Blk (Homo sapiens, UniProt P51451);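 note: obtained as one member of a kinome-wide kinase assay panel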
[11] = target: Mitogen-activated protein kinase kinase kinase 20 (Homo sapiens, UniProt Q9NYL2)
[12] = target: Serine/threonine-protein kinase pim-3 (Homo sapiens, UniProt Q86V86);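 note: value obtained as one member of a broad kinase panel profiling effort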
[13] = target: Protein kinase C gamma type (Homo sapiens, UniProt P05129)
[14] = target: Dual specificity tyrosine-phosphorylation-regulated kinase 3 (Homo sapiens, UniProt O43781);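 note: measured as one member of a broad kinase panel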
[15] = target: Insulin-like growth factor 1 receptor (Homo sapiens, UniProt P08069); assay: Navigating the Kinome. Panel member name: IGF1R
[16] = target: Dual specificity tyrosine-phosphorylation-regulated kinase 4 (Homo sapiens, UniProt Q9NR20)
[17] = target: Focal adhesion kinase 1 (Homo sapiens, UniProt Q05397);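 note: measured as one member of a kinome panel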
[18] = target: Protein-tyrosine kinase 6 (Homo sapiens, UniProt Q13882)
Sequence of Protein-tyrosine kinase 6 (Q13882 whole entry): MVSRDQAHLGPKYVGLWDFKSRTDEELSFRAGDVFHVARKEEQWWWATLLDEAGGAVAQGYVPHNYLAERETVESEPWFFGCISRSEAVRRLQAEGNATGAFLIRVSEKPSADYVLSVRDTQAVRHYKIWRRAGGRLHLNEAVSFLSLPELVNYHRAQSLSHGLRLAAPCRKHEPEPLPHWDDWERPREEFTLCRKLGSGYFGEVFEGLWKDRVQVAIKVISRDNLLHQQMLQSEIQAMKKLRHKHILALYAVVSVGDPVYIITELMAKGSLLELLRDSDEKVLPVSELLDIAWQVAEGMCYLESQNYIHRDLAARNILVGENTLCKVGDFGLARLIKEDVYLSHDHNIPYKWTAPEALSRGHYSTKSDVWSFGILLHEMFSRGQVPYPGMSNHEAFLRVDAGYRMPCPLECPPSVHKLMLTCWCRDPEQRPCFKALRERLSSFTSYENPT

[19] = target: Mitogen-activated protein kinase kinase kinase kinase 5 (Homo sapiens, UniProt Q9Y4K4);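 note: measured as one member of a kinome-spanning kinase panel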
Sequence of Mitogen-activated protein kinase kinase kinase kinase 5 (Q9Y4K4 whole entry): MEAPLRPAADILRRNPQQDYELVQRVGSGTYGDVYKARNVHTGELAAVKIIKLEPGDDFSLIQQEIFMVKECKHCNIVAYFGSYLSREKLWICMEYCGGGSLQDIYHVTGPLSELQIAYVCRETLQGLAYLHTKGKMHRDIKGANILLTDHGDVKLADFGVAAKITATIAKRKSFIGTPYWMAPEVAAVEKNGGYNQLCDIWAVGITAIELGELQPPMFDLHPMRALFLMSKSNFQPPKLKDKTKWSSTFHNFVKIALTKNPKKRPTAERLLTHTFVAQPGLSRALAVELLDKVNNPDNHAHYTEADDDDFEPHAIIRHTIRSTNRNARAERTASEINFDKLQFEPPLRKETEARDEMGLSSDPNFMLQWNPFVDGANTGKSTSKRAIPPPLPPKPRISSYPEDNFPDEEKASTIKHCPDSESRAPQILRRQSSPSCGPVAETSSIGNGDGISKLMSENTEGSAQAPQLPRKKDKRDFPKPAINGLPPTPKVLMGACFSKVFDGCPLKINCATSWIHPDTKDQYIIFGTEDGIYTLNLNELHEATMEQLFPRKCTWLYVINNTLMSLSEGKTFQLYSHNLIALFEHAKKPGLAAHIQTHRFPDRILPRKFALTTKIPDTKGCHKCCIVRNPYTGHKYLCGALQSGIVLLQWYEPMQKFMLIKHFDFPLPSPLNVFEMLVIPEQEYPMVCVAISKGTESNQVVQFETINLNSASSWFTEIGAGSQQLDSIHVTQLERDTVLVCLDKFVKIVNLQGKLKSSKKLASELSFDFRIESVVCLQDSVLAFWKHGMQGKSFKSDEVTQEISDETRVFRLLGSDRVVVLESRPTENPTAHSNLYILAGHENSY

[20] = target: Fibroblast growth factor receptor 3 (Homo sapiens, UniProt P22607)
Sequence of Fibroblast growth factor receptor 3 (P22607 whole entry): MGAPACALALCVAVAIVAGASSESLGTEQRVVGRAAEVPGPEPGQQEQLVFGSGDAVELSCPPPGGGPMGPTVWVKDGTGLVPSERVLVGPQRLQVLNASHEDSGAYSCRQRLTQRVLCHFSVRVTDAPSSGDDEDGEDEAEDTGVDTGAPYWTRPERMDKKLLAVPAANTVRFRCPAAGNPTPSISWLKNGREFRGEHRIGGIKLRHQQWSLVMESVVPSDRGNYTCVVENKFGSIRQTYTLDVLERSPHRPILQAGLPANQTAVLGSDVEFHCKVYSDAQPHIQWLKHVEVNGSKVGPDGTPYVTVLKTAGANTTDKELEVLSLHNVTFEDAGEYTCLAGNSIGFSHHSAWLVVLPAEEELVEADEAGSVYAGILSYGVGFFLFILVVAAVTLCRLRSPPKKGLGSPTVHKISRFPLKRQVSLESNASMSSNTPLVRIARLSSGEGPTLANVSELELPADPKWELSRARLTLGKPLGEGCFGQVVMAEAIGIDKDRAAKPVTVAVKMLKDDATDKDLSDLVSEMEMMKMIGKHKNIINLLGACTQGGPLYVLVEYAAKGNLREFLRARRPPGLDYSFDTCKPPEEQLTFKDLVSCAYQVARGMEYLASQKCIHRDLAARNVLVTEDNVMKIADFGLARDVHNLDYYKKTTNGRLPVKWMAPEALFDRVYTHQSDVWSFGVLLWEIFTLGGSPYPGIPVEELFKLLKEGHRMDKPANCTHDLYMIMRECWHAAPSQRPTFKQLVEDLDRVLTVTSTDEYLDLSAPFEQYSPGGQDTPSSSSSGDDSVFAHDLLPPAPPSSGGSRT

[21] = target: BDNF/NT-3 growth factors receptor (Homo sapiens, UniProt Q16620);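 note: NTRK2 measured as one member of a broad kinome-wide kinase profiling panel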
[22] = target: Receptor tyrosine-protein kinase erbB-4 (Homo sapiens, UniProt Q15303);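 note: ERBB4 member of a kinome-wide kinase profiling panel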
[23] = target: cAMP-dependent protein kinase catalytic subunit alpha (Homo sapiens, UniProt P17612)
[24] = target: Dual specificity protein kinase CLK4 (Homo sapiens, UniProt Q9HAZ1)
[25] = target: Serine/threonine-protein kinase BRSK1 (Homo sapiens, UniProt Q8TDC3);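 note: measured within a kinome-wide kinase panel, with the target listed as KIAA1811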

Sequence of Phosphorylase b kinase gamma catalytic chain, liver/testis isoform (P15735 whole entry, canonical isoform): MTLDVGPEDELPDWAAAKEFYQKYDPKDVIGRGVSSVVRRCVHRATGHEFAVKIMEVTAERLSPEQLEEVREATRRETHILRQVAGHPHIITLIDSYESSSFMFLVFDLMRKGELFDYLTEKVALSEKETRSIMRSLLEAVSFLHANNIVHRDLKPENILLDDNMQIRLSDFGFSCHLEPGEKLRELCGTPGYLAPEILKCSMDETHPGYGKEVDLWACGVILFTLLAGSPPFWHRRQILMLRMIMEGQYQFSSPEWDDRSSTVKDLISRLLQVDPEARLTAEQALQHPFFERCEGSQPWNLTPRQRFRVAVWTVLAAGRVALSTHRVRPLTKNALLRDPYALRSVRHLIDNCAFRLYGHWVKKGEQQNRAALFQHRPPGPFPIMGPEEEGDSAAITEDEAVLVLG

Ki [1]: 3160 nM (active)
Ki [2]: > 1260 nM (inactive)
Ki [3]: 6310 nM (active)
Ki [4]: 25.1 nM (active)
Ki [5]: > 6310 nM (inactive)
Ki [6]: > 6310 nM (inactive)
Ki [7]: > 1580 nM (inactive)
Ki [8]: 1260 nM (active)
Ki [9]: 79.4 nM (active)
Ki [10]: > 1580 nM (inactive)
Ki [11]: > 7940 nM (inactive)
Ki [12]: 3160 nM (active)
Ki [13]: 1580 nM (active)
Ki [14]: 631 nM (active)
Ki [15]: > 2000 nM (inactive)
Ki [16]: 2000 nM (active)
Ki [17]: > 1580 nM (inactive)
Ki [18]: > 2510 nM (inactive)
Ki [19]: 631 nM (active)
Ki [20]: > 2000 nM (inactive)
Ki [21]: > 5010 nM (inactive)
Ki [22]: > 3980 nM (inactive)
Ki [23]: 631 nM (active)
Ki [24]: 25.1 nM (active)
Ki [25]: 2000 nM (active)
Compound: NC(=O)Cn1cc(-c2cc(-c3cc4ccccc4s3)c3[nH]ncc3c2)c2nc(N)ncc21
